# B1: Anti-PD-1 (antibody)
# heavy: EVQLVESGGGLVQPGGSLKLSCAASGFTFSNSGLAWVRQAPEKGLEWVATITYNGTSTYYRDSVKGRFTISRDNAKNTLYLQMSSLRSEDTATYYCARWVPGSGNFDYWGQGTLVTVSSAKTTPPSVYPLAPGSAAQTNSMVTLGCLVKGYFPEPVTVTWNSGSLSSGVHTFPAVLQSDLYTLSSSVTVPSSTWPSETVTCNVAHPASSTKVDKKIVPRDCGCKPCICTVPEVSSVFIFPPKPKDVLTITLTPKVTCVVVAISKDDPEVQFSWFVDDVEVHTAQTQPREEQFNSTFRSVSELPIMHQDWLNGKEFKCRVNSAAFPAPIEKTISKTKGRPKAPQVYTIPPPKEQMAKDKVSLTCMITDFFPEDITVEWQWNGQPAENYKNTQPIMDTDGSYFVYSKLNVQKSNWEAGNTFTCSVLHEGLHNHHTEKSLSHSPGK
# light: DIVLTQSPASLAVSLGQRATISCRASQSVTISRYTLMHWYQQKPGQPPKLLIYRASNLASGIPARFSGSGSGTDFTLNIHPVEEDDAATYYCQQSRESPWTFGGGTKLEIKRADAAPTVSIFPPSSEQLTSGGASVVCFLNNFYPKDINVKWKIDGSERQNGVLNSWTDQDSKDSTYSMSSTLTLTKDEYERHNSYTCEATHKTSTSPIVKSFNRNEC
# B2: Anti-TIGIT (antibody)
# heavy: QVQLMESGPGLVQPSQTLSLTCTVSGFPLTSYTVHWVRQPPGKGLEWIGAIWSSGSTDYNSALKSRLNINRDSSKSQVFLKMNSLQTEDTAIYFCTKSGWAFFDYWGQGVMVTVSSAKTTAPSVYPLAPVCGDTTGSSVTLGCLVKGYFPEPVTLTWNSGSLSSGVHTFPAVLQSDLYTLSSSVTVTSSTWPSQSITCNVAHPASSTKVDKKIEPRGPTIKPCPPCKCPAPNLLGGPSVFIFPPKIKDVLMISLSPIVTCVVVDVSEDDPDVQISWFVNNVEVHTAQTQTHREDYNSTLRVVSALPIQHQDWMSGKEFKCKVNNKDLPAPIERTISKPKGSVRAPQVYVLPPPEEEMTKKQVTLTCMVTDFMPEDIYVEWTNNGKTELNYKNTEPVLDSDGSYFMYSKLRVEKKNWVERNSYSCSVVHEGLHNHHTTKSFSRTPGK
# light: DIQMTQSPSLLSASVGDRVTLNCIASQNIYKSLAWYQLKLGEAPKLLIYNANSLQAGIPSRFSGSGSGTDFALTISGLQPEDVATYFCQQYSGGYTFGAGTKLELKRADAAPTVSIFPPSSEQLTSGGASVVCFLNNFYPKDINVKWKIDGSERQNGVLNSWTDQDSKDSTYSMSSTLTLTKDEYERHNSYTCEATHKTSTSPIVKSFNRNEC
# Assays:
# CT26 tumors = test: CT26 mouse syngeneic tumor model: tumor growth inhibition and tumor regressions; format: in vivo; details: CT26 tumors in female BALB/cAnn mice, 10 per group, anti-PD-1 5 mg/kg ip every 5 days, anti-TIGIT 10 mg/kg ip every 5 days, belzutifan 3 mg/kg orally twice daily; for Tumor growth inhibition (TGI) % at Day 16: Day 16 when control animals exited study; for Number of complete tumor regressions (CRs) at end of study / Number of partial tumor regressions (PRs) at end of study: end of study (Day 43)
# Description: The present Example describes preclinical data using a TIGIT antagonist and a PD-1 antagonist in combination with belzutifan, using mouse syngeneic models.
# Prior to treatment initiation, female BALB/cAnn mice aged 7 weeks weighing between 18 to 21 grams were anesthetized and injected subcutaneously into the rear flank with 0.3×10^6 log-phase sub-confluent CT26 cells. Mice were pair-matched into treatment groups consisting of 10 mice per group when the mean tumor volume of inoculated CT26 tumors reached approximately 150 mm^3.
# Treatment groups consisted of: • 1) Isotype mouse IgG1 (mIgG1) antibody+Isotype mouse IgG2a (mIgG2a) antibody+0.5% methylcellulose (vehicle); • 2) anti-PD-1 mIgG1 antibody+Isotype mIgG2a antibody+vehicle; • 3) anti-TIGIT mIgG2a antibody+Isotype mIgG1 antibody+vehicle; • 4) Isotype mIgG1 antibody+Isotype mIgG2a antibody+belzutifan; • 5) anti-PD-1 mIgG1 antibody+anti-TIGIT mIgG2a antibody+vehicle; • 6) anti-PD-1 mIgG1 antibody+Isotype mIgG2a antibody+belzutifan; • 7) Isotype mIgG1 antibody+anti-TIGIT mIgG2a antibody+belzutifan; and • 8) anti-PD-1 mIgG1 antibody+anti-TIGIT mIgG2a antibody+belzutifan.
# Isotype mIgG1 and anti-PD-1 antibodies were dosed intraperitoneally every 5 days at 5 mg/kg body weight. Isotype mIgG2a and anti-TIGIT antibodies were dosed intraperitoneally every 5 days at 10 mg/kg body weight. Belzutifan was dosed orally twice daily at 3 mg/kg body weight. Start of treatments was considered Day 0 and dosing based on schedules continued as described until Day 43. Caliper measurements of tumors and body weights were captured twice weekly. Statistical analyses were performed by 2-sided student t-test of final 2 groups at Day 43 when study ended.
# [1] = AE profile of belzutifan; cited from earlier work
# [2] = system: RCC associated with VHL disease, CNS hemangioblastomas, pancreatic neuroendocrine tumors; details: cited from earlier work
# [3] = patients with RCC associated with VHL disease who received belzutifan
Molecule,Tumor growth inhibition (TGI) % at Day 16 (CT26 tumors) [%],Number of complete tumor regressions (CRs) at end of study (CT26 tumors),Number of partial tumor regressions (PRs) at end of study (CT26 tumors),adverse events associated with treatment [1],patients with a response after treatment ([2]; patients with CNS hemangioblastomas) [%],"patients with a confirmed objective response [2, 3] [%]","reduction in renal tumor size [2, 3]",patients who responded after treatment ([2]; patients with pancreatic neuroendocrine tumors) [%]
"CS(=O)(=O)c1ccc(Oc2cc(F)cc(C#N)c2)c2c1[C@H](O)[C@H](F)[C@@H]2F [belzutifan, 3-[(1S,2S,3R)-2,3-Difluoro-1-hydroxy-7-methylsulfonyl-indan-4-yl]oxy-5-fluoro-benzonitrile]",5.8,"0 CRs, 0 PRs","0 CRs, 0 PRs",anemia and hypoxia have been associated with belzutifan treatment,30,49,most patients had a reduction in renal tumor size,91
B1,4.8,0,1,–,–,–,–,–
B2,47.4,"0 CRs, 0 PRs","0 CRs, 0 PRs",–,–,–,–,–
